According to US11446285B2, “Methods for treating systemic lupus erythematosus” (University of Southern California, priority 2017, dated 2022):
“Also recorded” adds a separate entry of the source.

Key:
Format in all cases: in vivo
[1] = test system: MRL-lpr mice; assay: Protein urine scores in MRL-lpr mouse model of SLE; details: once daily s.c. for 6 weeks from 8 weeks of age, A(1-7) 0.5 mg/kg, Compound 7 2 mg/kg, compared to saline treated MRL-lpr mice
Method: Protein urine scores. At necropsy a final measurement or proteinuria was done using Urinalysis Reagent Strips (Mountainside Medical Equipment; Marcy, N.Y.). Protein scores signify the level of protein measured in the urine of each mouse and are scored as; 1-15 mg/dl protein, 2-30 mg/dl protein, 3-100 mg/dl protein and 4-300 mg/dl protein.
(§1) Our study uses the MRL/MpJ-Fas^lpr/J (MRL-lpr) as a mouse model of SLE and MRL/MpJ mice as controls (control mice do develop SLE but at a much later stage in life). These mice were broken into 4 groups that received once daily subcutaneous injections of treatment starting at 8 weeks of age for 6 weeks: a MRL/MpJ group (n=5) dosed daily with saline, an MRL-lpr group (n=8) dosed with saline, an MRL/MpJ group (n=8) dosed with 0.5 mg/kg of A(1-7), and an MRL/MpJ group (n=8) dosed with 2 mg/kg of Compound 7 (in an aqueous Tween 20 formulation). Throughout the study, the mice were monitored for proteinuria and face lesions. At necropsy, the kidneys and peripheral blood were harvested. The kidneys sections were stained with hematoxylin & eosin (H&E) for evaluation of glomerular health. Blood samples were processed and the plasma was stored at −20° C. for measurement of anti-dsDNA antibodies.

[2] = test system: MRL-lpr mice; assay: Glomerulonephritis scores (H&E kidney sections) in MRL-lpr mouse model of SLE; details: once daily s.c. for 6 weeks, A(1-7) 0.5 mg/kg, Compound 7 2 mg/kg, compared to saline treated MRL-lpr mice
Method: Glomerulonephritis scores. Twenty glomeruli from kidney sections stained with H&E were scored for each mouse and a mean score was calculated. The glomerulonephritis score was based on a previously published score of 0-4 based on histopathological changes^6. The scores were defined as: 0, kidney without glomerular lesions; 1, minimal thickening of the mesangium; 2, noticeable increase in both mesangial and glomerular capillary cellularity; 3, preceding conditions, along with superimposed inflammatory exudates and capsular adhesions; 4, obliteration of the glomerular architecture included >70% of glomeruli.
as §1, with “Blood samples were processed and the plasma was stored at −20° C. for measurement of anti-dsDNA antibodies.” left out

[3] = test system: MRL-lpr mice; assay: Face rash scores in MRL-lpr mouse model of SLE; details: scored 19, 25, 30, 37 and 40 days after start of treatment, A(1-7) 0.5 mg/kg, Compound 7 2 mg/kg s.c. daily, compared to saline treated MRL-lpr mice
Excerpt: Face rash scores. Mice were monitored daily for skin lesions. Scores of lesions of the face were taken 19, 25, 30, 37 and 40 days after the start of treatment; pictures were taken at different time points throughout the study. Face rash scores were based on location and extent of inflammation and hair loss as follows: 0, no noticeable irritation; 1, little redness, no hair loss or inflammation; 2, minimal rash, little hair loss or inflammation; 3, moderate rash, increased hair loss, light inflammation; 4, pronounced rash, near total hair loss and obvious inflammation; 5, rash is spreading up to the top of the face; 6, obvious wound above nose.
as §1

[4] = test system: MRL-lpr mice; assay: Lymph node weights (inguinal and axillary) in MRL-lpr mouse model of SLE; details: 6 weeks of treatment, A(1-7) 0.5 mg/kg, Compound 7 2 mg/kg s.c. daily, compared to saline treated MRL-lpr mice
Excerpt: Lymph node weights. At necropsy, inguinal and axillary lymph nodes were dissected and trimmed of any surrounding fatty tissues. They were then weighed using an Adventurer precision balance (Ohaus Corporation, Parsippany, N.J.).
as §1

[5] = test system: MRL-lpr mice; assay: Anti-dsDNA IgG titers in plasma (ELISA) in MRL-lpr mouse model of SLE; details: plasma at necropsy after 6 weeks of treatment, A(1-7) 0.5 mg/kg, Compound 7 2 mg/kg s.c. daily, compared to saline treated MRL-lpr mice
Method: Anti-dsDNA IgG titers. Peripheral blood was collected at necropsy by cardiac puncture with a 1 mL syringe fitted with a 22G needle, transferred into 2 ml K3E K3EDTA VACUETTE® tubes, and stored on ice. The tubes were then spun at 1,500 RPM for 15 min at 4° C. The plasma (top layer) was collected and stored at −20° C. The plasma was then diluted at 1:100 and used in a Mouse Anti-DNA IgG Antibody ELISA Kits (Chondrex Inc, Redmond, Wash.). The average concentration of duplicate samples was calculated against a standard curve and averaged for each mouse.
as §1, with “Blood samples were processed and the plasma was stored at −20° C. for measurement of anti-dsDNA antibodies.” left out

CCCCOC(=O)NS(=O)(=O)c1ccc(OC(F)(F)F)cc1-c1ccc(Cn2ccnc2)cn1 [Compound 7]
protein urine score (proteinuria) at final measurement [1]: significantly lower protein scores | glomerulonephritis score (glomerular pathologies) [2]: significantly reduced the glomerular pathologies | face rash score (inflammation and hair loss) [3]: significantly lower only at day 19 and 37 | face rash score (inflammation and hair loss) ([3]; listed as compound 7): significantly less overall pathologies | inguinal and axillary lymph node weight (size) at necropsy [4]: reduced the size of both lymph nodes; also recorded: reduced the size but not significantly | concentration of circulating anti-dsDNA IgG antibodies in plasma [5]: significantly lower levels of circulating IgG antibodies against dsDNA; also recorded: significantly lower concentrations

Asp-Arg-Val-Tyr-Ile-His-Pro (DRVYIHP) [A(1-7), endogenous Mas receptor ligand angiotensin 1-7]
protein urine score (proteinuria) at final measurement [1]: significantly lower protein scores | glomerulonephritis score (glomerular pathologies) [2]: significantly reduced the glomerular pathologies | face rash score (inflammation and hair loss) [3]: significantly less overall pathologies; also recorded: significantly lower score than the saline treated MRL-lrp mice throughout the study | inguinal and axillary lymph node weight (size) at necropsy [4]: reduced the size of both lymph nodes; also recorded: significantly smaller | concentration of circulating anti-dsDNA IgG antibodies in plasma [5]: significantly lower levels of circulating IgG antibodies against dsDNA; also recorded: significantly lower concentrations
